Patent US20160002248A1, “GLS1 INHIBITORS FOR TREATING DISEASE” (Board of Regents, The University of Texas System, priority 2014, published 2016)

Key:
[1] = system: A549 cells; assay: Proliferation Assay (A549 cell viability, Cell Titer Fluor); format: cell-based; conditions: Homo sapiens, 72 hours
Outline: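 Seed A549 at 1000 cells/well and culture 24 h. Add compound (final DMSO 0.5%) and incubate 72 h at 37 °C. Add Cell Titer Fluor, mix 15 min, incubate 30 min, read fluorescence and fit EC50 by four-parameter logistic.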

[2] = target: T1, purified recombinant human GAC (GLS1) (Homo sapiens, UniProt O94925); assay: GLS1 Enzymatic Activity Assay (dual-coupled enzymatic assay); format: biochemical
T1 sequence (O94925 55-598 isoform O94925-3 limits assumed): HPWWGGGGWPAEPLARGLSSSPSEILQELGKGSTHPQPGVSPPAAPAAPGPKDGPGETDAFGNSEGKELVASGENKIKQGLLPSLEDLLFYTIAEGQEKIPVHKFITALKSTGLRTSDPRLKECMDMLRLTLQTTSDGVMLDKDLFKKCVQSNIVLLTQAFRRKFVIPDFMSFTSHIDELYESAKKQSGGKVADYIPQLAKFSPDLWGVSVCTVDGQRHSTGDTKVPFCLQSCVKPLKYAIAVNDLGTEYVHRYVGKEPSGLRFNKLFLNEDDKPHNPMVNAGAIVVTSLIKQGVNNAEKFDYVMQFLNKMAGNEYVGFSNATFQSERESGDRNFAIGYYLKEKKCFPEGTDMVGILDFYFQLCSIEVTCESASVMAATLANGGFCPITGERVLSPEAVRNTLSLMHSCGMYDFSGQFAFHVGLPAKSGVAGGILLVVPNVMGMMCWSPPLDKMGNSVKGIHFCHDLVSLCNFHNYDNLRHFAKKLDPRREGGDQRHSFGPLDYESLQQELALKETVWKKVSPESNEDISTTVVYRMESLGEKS
Outline: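 GAC activity measured by coupling glutamate to glutamate oxidase and HRP, generating resorufin from Amplex UltraRed. Enzyme (2 nM) preincubated with 50 mM potassium phosphate 10 min at room temperature, then inhibitor 10 min; 1 mM glutamine substrate, 1% DMSO. Fluorescence 530/590 nm, kinetic or 20-min endpoint; IC50 from four-parameter logistic fit.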

Question: `CS(=O)(=O)Nc1cccc(-c2c(C3CC3)[nH]c3nnc(CCCCn4cc(C(=O)NCc5ccccn5)nn4)cc23)c1` [Example 137, 1-{4-[6-cyclopropyl-5-(3-methanesulfonamidophenyl)-7H-pyrrolo[2,3-c]pyridazin-3-yl]butyl}-N-(pyridin-2-ylmethyl)-1H-1,2,3-triazole-4-carboxamide] was tested. Which EC50 [1] did it give?
Answer: Its EC50 is 500 to 5000 nM.

Question: And the IC50 [2]?
Answer: The IC50 was < 100 nM.

Question: For `O=C(NCc1ccccn1)c1cn(CCCCc2cc3c(-c4ccc(O)cc4)c(C4CC4)[nH]c3nn2)nn1` [Example 138, 1-{4-[6-cyclopropyl-5-(4-hydroxyphenyl)-7H-pyrrolo[2,3-c]pyridazin-3-yl]butyl}-N-(pyridin-2-ylmethyl)-1H-1,2,3-triazole-4-carboxamide], which EC50 [1] is on record?
Answer: The EC50 was 500 to 5000 nM.

Question: And the IC50 [2]?
Answer: The IC50 was < 100 nM.

Question: `O=C(NCc1ccccn1)c1cn(CCCCc2cc3c(-c4ccsc4)c(C4CC4)[nH]c3nn2)nn1` [Example 139, 1-{4-[6-cyclopropyl-5-(thiophen-3-yl)-7H-pyrrolo[2,3-c]pyridazin-3-yl]butyl}-N-(pyridin-2-ylmethyl)-1H-1,2,3-triazole-4-carboxamide] was tested. Which EC50 [1] did it give?
Answer: Its EC50 is 100 to 500 nM.

Question: What about the IC50 [2] of the same compound?
Answer: Its IC50 is < 100 nM.

Question: With `N#CCC(=O)N1CC(c2cc3cc(CCCCn4cc(C(=O)NCc5cc(OC(F)(F)F)ccc5F)nn4)nnc3[nH]2)C1` [Example 140, 1-(4-{6-[1-(2-cyanoacetyl)azetidin-3-yl]-7H-pyrrolo[2,3-c]pyridazin-3-yl}butyl)-N-{[2-fluoro-5-(trifluoromethoxy)phenyl]methyl}-1H-1,2,3-triazole-4-carboxamide] as the compound, how does the EC50 [1] read?
Answer: The EC50 was 500 to 5000 nM.

Question: What about the IC50 [2] of the same compound?
Answer: The IC50 was < 100 nM.

Question: How did the EC50 [1] turn out when `O=C(NCc1cc(OC(F)(F)F)ccc1F)c1cn(CCCCc2cc3cc(C4CN(C(=O)CC(F)(F)F)C4)[nH]c3nn2)nn1` [Example 141, N-{[2-fluoro-5-(trifluoromethoxy)phenyl]methyl}-1-(4-{6-[1-(3,3,3-trifluoropropanoyl)azetidin-3-yl]-7H-pyrrolo[2,3-c]pyridazin-3-yl}butyl)-1H-1,2,3-triazole-4-carboxamide] was run?
Answer: Its EC50 is 100 to 500 nM.

Question: And the IC50 [2]?
Answer: Its IC50 is < 100 nM.

Question: For `O=C(NCc1cccc(OC(F)(F)F)c1)c1cn(CCCCc2cc3c(-c4ccccn4)c(C4CC4)[nH]c3nn2)nn1` [Example 143, 1-{4-[6-cyclopropyl-5-(pyridin-2-yl)-7H-pyrrolo[2,3-c]pyridazin-3-yl]butyl}-N-{[3-(trifluoromethoxy)phenyl]methyl}-1H-1,2,3-triazole-4-carboxamide], which EC50 [1] is on record?
Answer: The EC50 was < 100 nM.

Question: And the IC50 [2]?
Answer: The IC50 was < 100 nM.

Question: For `O=C(NCc1cc(OC(F)(F)F)ccc1F)c1cn(CCCCc2cc3c(-c4ccccn4)c(C4CC4)[nH]c3nn2)nn1` [Example 144, 1-{4-[6-cyclopropyl-5-(pyridin-2-yl)-7H-pyrolo[2,3-c]pyridazin-3-yl]butyl}-N-{[2-fluoro-5-(trifluoromethoxy)phenyl]methyl}-1H-1,2,3-triazole-4-carboxamide], which EC50 [1] is on record?
Answer: Its EC50 is < 100 nM.

Question: What about the IC50 [2] of the same compound?
Answer: Its IC50 is < 100 nM.

Question: How did the EC50 [1] turn out when `O=C(NCc1ccccn1)c1cn(CCCCc2cc3c(-c4ccc5c(c4)OCO5)c(C4CC4)[nH]c3nn2)nn1` [Example 145, 1-{4-[5-(2H-1,3-benzodioxol-5-yl)-6-cyclopropyl-7H-pyrrolo[2,3-c]pyridazin-3-yl]butyl}-N-(pyridin-2-ylmethyl)-1H-1,2,3-triazole-4-carboxamide] was run?
Answer: Its EC50 is 100 to 500 nM.

Question: What about the IC50 [2] of the same compound?
Answer: The IC50 was < 100 nM.

Question: Which EC50 [1] does the source give for `Cc1ccc(CNC(=O)c2cn(CCCCc3cc4c(-c5ccc6c(c5)OCO6)c(C5CC5)[nH]c4nn3)nn2)cn1` [Example 146, 1-{4-[5-(2H-1,3-benzodioxol-5-yl)-6-cyclopropyl-7H-pyrrolo[2,3-c]pyridazin-3-yl]butyl}-N-[(6-methylpyridin-3-yl)methyl]-1H-1,2,3-triazole-4-carboxamide] here?
Answer: Its EC50 is < 100 nM.

Question: And the IC50 [2]?
Answer: Its IC50 is < 100 nM.

Question: With `Cc1ccc(CNC(=O)c2cn(CCCCc3cc4c(-c5ccc(F)cc5F)c(C5CC5)[nH]c4nn3)nn2)cn1` [Example 147, 1-{4-[6-cyclopropyl-5-(2,4-difluorophenyl)-7H-pyrrolo[2,3-c]pyridazin-3-yl]butyl}-N-[(6-methylpyridin-3-yl)methyl]-1H-1,2,3-triazole-4-carboxamide] as the compound, how does the EC50 [1] read?
Answer: Its EC50 is < 100 nM.

Question: What about the IC50 [2] of the same compound?
Answer: The IC50 was < 100 nM.

Question: Which results are given for `O=C(NCc1cc(OC(F)(F)F)ccc1F)c1cn(CCCCc2cc3cc(C4CN(C(=O)OCC(F)(F)F)C4)[nH]c3nn2)nn1` [Example 148, 2,2,2-trifluoroethyl 3-(3-{4-[4-({[2-fluoro-5-(trifluoromethoxy)phenyl]methyl}carbamoyl)-1H-1,2,3-triazol-1-yl]butyl}-7H-pyrrolo[2,3-c]pyridazin-6-yl)azetidine-1-carboxylate]?
Answer: EC50 [1]: < 100 nM; IC50 [2]: < 100 nM

Question: Which results are given for `O=C(NCc1ccccn1)c1cn(CCCCc2cc3cc(-c4cccc(OC(F)(F)F)c4)[nH]c3nn2)nn1` [Example 149, N-(pyridin-2-ylmethyl)-1-(4-{6-[3-(trifluoromethoxy)phenyl]-7H-pyrrolo[2,3-c]pyridazin-3-yl}butyl)-1H-1,2,3-triazole-4-carboxamide]?
Answer: EC50 [1]: 500 to 5000 nM; IC50 [2]: < 100 nM

Question: With `CC(C)(C)OC(=O)N1CCC(c2cc3cc(CCCCn4cc(C(=O)NCc5cc(OC(F)(F)F)ccc5F)nn4)nnc3[nH]2)CC1` [Example 150, tert-butyl 4-(3-{4-[4-({[2-fluoro-5-(trifluoromethoxy)phenyl]methyl}carbamoyl)-1H-1,2,3-triazol-1-yl]butyl}-7H-pyrrolo[2,3-c]pyridazin-6-yl)piperidine-1-carboxylate] as the compound, how does the EC50 [1] read?
Answer: Its EC50 is < 100 nM.

Question: What about the IC50 [2] of the same compound?
Answer: The IC50 was < 100 nM.

Question: For `O=C(NCc1ccccn1)c1cn(CCCCc2cc3c(-c4ccc(F)cc4F)c(C4CC4)[nH]c3nn2)nn1` [Example 151], which EC50 [1] is on record?
Answer: Its EC50 is 100 to 500 nM.

Question: What about the IC50 [2] of the same compound?
Answer: The IC50 was < 100 nM.

Question: For `CC(=O)Nc1cccc(-c2c(C3CC3)[nH]c3nnc(CCCCn4cc(C(=O)NCc5ccc(C(C)(C)O)nc5)nn4)cc23)c1` [Example 152, 1-{4-[6-cyclopropyl-5-(3-acetamidophenyl)-7H-pyrrolo[2,3-c]pyridazin-3-yl]butyl}-N-{[6-(2-hydroxypropan-2-yl)pyridin-3-yl]methyl}-1H-1,2,3-triazole-4-carboxamide], which EC50 [1] is on record?
Answer: Its EC50 is 500 to 5000 nM.

Question: And the IC50 [2]?
Answer: Its IC50 is < 100 nM.

Question: With `CC(=O)Nc1cccc(-c2c(C3CC3)[nH]c3nnc(CCCCn4cc(C(=O)NCc5ccccn5)nn4)cc23)c1` [Example 153] as the compound, how does the EC50 [1] read?
Answer: Its EC50 is 500 to 5000 nM.

Question: What about the IC50 [2] of the same compound?
Answer: Its IC50 is < 100 nM.

Question: `CC(=O)Nc1cccc(-c2c(C3CC3)[nH]c3nnc(CCCCn4cc(C(=O)NCc5ccc(C)nc5)nn4)cc23)c1` [Example 154, 1-{4-[6-cyclopropyl-5-(3-acetamidophenyl)-7H-pyrrolo[2,3-c]pyridazin-3-yl]butyl}-N-[(6-methylpyridin-3-yl)methyl]-1H-1,2,3-triazole-4-carboxamide] was tested. Which EC50 [1] did it give?
Answer: Its EC50 is 500 to 5000 nM.

Question: What about the IC50 [2] of the same compound?
Answer: Its IC50 is < 100 nM.

Question: With `O=C(NCc1cc(OC(F)(F)F)ccc1F)c1cn(CCCCc2cc3cc(C4CCNCC4)[nH]c3nn2)nn1` [Example 155, N-{[2-fluoro-5-(trifluoromethoxy)phenyl]methyl)-1-{4-[6-(piperidin-4-yl)-7H-pyrrolo[2,3-c]pyridazin-3-yl]butyl)-1H-1,2,3-triazole-4-carboxamide] as the compound, how does the EC50 [1] read?
Answer: Its EC50 is 500 to 5000 nM.

Question: What about the IC50 [2] of the same compound?
Answer: The IC50 was 100 to 500 nM.

Question: Which results are given for `CC(=O)N1CCC(c2cc3cc(CCCCn4cc(C(=O)NCc5cc(OC(F)(F)F)ccc5F)nn4)nnc3[nH]2)CC1` [Example 156, 1-{4-[6-(1-acetylpiperidin-4-yl)-7H-pyrrolo[2,3-c]pyridazin-3-yl]butyl}-N-{[2-fluoro-5-(trifluoromethoxy)phenyl]methyl}-1H-1,2,3-triazole-4-carboxamide]?
Answer: EC50 [1]: 100 to 500 nM; IC50 [2]: < 100 nM

Question: Which results are given for `O=C(NCc1cc(OC(F)(F)F)ccc1F)c1cn(CCCCc2cc3cc(C4CCN(C(=O)CC(F)(F)F)CC4)[nH]c3nn2)nn1` [Example 157, N-{[2-fluoro-5-(trifluoromethoxy)phenyl]methyl)-1-(4-{6-[1-(3,3,3-trifluoropropanoyl)piperidin-4-yl]-7H-pyrrolo[2,3-c]pyridazin-3-yl}butyl)-1H-1,2,3-triazole-4-carboxamide]?
Answer: EC50 [1]: 100 to 500 nM; IC50 [2]: < 100 nM

Question: Which results are given for `CNC(=O)c1cccc(-c2c(C3CC3)[nH]c3nnc(CCCCn4cc(C(=O)NCc5ccc(C)nc5)nn4)cc23)c1` [Example 158, 1-(4-{6-cyclopropyl-5-[3-(methylcarbamoyl)phenyl]-7H-pyrrolo[2,3-c]pyridazin-3-yl}butyl)-N-[(6-methylpyridin-3-yl)methyl]-1H-1,2,3-triazole-4-carboxamide]?
Answer: EC50 [1]: 500 to 5000 nM; IC50 [2]: < 100 nM

Question: What does the source list for `Cc1ccc(CNC(=O)c2cn(CCCCc3cc4c(-c5cccc(CNS(C)(=O)=O)c5)c(C5CC5)[nH]c4nn3)nn2)cn1` [Example 159, 1-(4-{6-cyclopropyl-5-[3-(methanesulfonamidomethyl)phenyl]-7H-pyrrolo[2,3-c]pyridazin-3-yl}butyl)-N-[(6-methylpyridin-3-yl)methyl]-1H-1,2,3-triazole-4-carboxamide]?
Answer: EC50 [1]: 500 to 5000 nM; IC50 [2]: < 100 nM

Question: `Cc1ccc(CNC(=O)c2cn(CCCCc3cc4c(-c5cccc(C(C)(C)O)c5)c(C5CC5)[nH]c4nn3)nn2)cn1` [Example 160, 1-(4-{6-cyclopropyl-5-[3-(2-hydroxypropan-2-yl)phenyl]-7H-pyrrolo[2,3-c]pyridazin-3-yl}butyl)-N-[(6-mcthylpyridin-3-yl)methyl]-1H-1,2,3-triazole-4-carboxamide] was tested. Which EC50 [1] did it give?
Answer: Its EC50 is 100 to 500 nM.

Question: What about the IC50 [2] of the same compound?
Answer: Its IC50 is < 100 nM.
